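The concentration for 50% growth inhibition is given as GI50. TGI: total growth inhibition.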
Tests used:
Assay in all cases: NCI anticancer screen, dose series, 384-well format
SK-MEL-5 melanoma = tested on: SK-MEL-5 melanoma
SNB-75 CNS = tested on: SNB-75 CNS
MDA-MB-435 melanoma = tested on: MDA-MB-435 melanoma
U251 glioblastoma = tested on: U251 glioblastoma
CAKI-1 renal = tested on: CAKI-1 renal
LOX IMVI melanoma = tested on: LOX IMVI melanoma
HCT-15 colon = tested on: HCT-15 colon
UACC-62 melanoma = tested on: UACC-62 melanoma
OVCAR-3 ovarian = tested on: OVCAR-3 ovarian
RXF 393 renal = tested on: RXF 393 renal
EKVX NSCLC = tested on: EKVX NSCLC
PC-3 prostate = tested on: PC-3 prostate
HT29 colon = tested on: HT29 colon
SF-295 CNS = tested on: SF-295 CNS
A549 NSCLC = tested on: A549 NSCLC
COLO 205 colon = tested on: COLO 205 colon
UACC-257 melanoma = tested on: UACC-257 melanoma
NCI-H460 NSCLC = tested on: NCI-H460 NSCLC
TK-10 renal = tested on: TK-10 renal
ACHN renal = tested on: ACHN renal
NCI-H322M lung = tested on: NCI-H322M lung
SK-OV-3 ovarian = tested on: SK-OV-3 ovarian
MALME-3M melanoma = tested on: MALME-3M melanoma
RPMI-8226 leukemia = tested on: RPMI-8226 leukemia
IGROV1 ovarian = tested on: IGROV1 ovarian
KM12 colon = tested on: KM12 colon
MDA-MB-468 breast = tested on: MDA-MB-468 breast
NCI-H23 lung = tested on: NCI-H23 lung
HCT-116 colon = tested on: HCT-116 colon
HS 578T breast = tested on: HS 578T breast
M14 melanoma = tested on: M14 melanoma
SK-MEL-28 melanoma = tested on: SK-MEL-28 melanoma
SF-539 CNS = tested on: SF-539 CNS
SNB-19 CNS = tested on: SNB-19 CNS
UO-31 renal = tested on: UO-31 renal
HOP-92 NSCLC = tested on: HOP-92 NSCLC
SF-268 CNS = tested on: SF-268 CNS
SW-620 colon = tested on: SW-620 colon
786-0 renal = tested on: 786-0 renal
K-562 leukemia = tested on: K-562 leukemia
A498 renal = tested on: A498 renal
MCF7 breast = tested on: MCF7 breast
T-47D breast = tested on: T-47D breast
CCRF-CEM leukemia = tested on: CCRF-CEM leukemia
HCC-2998 colon = tested on: HCC-2998 colon

Nc1nc(Cl)nc2c1ncn2[C@@H]1O[C@H](COS(N)(=O)=O)[C@@H](O)[C@H]1O
GI50 (SK-MEL-5 melanoma): 0.0159 µM | TGI (SK-MEL-5 melanoma): 0.0296 µM | TGI (SNB-75 CNS): 0.0199 µM | TGI (MDA-MB-435 melanoma): 0.0167 µM | GI50 (U251 glioblastoma): 0.0143 µM | TGI (U251 glioblastoma): 0.0342 µM | GI50 (CAKI-1 renal): 0.0157 µM | TGI (CAKI-1 renal): 0.0422 µM | GI50 (LOX IMVI melanoma): 0.0173 µM | TGI (LOX IMVI melanoma): 0.0316 µM | GI50 (HCT-15 colon): 0.0207 µM | TGI (HCT-15 colon): 0.0451 µM | GI50 (UACC-62 melanoma): 0.0164 µM | TGI (UACC-62 melanoma): 0.0303 µM | GI50 (OVCAR-3 ovarian): 0.0209 µM | TGI (OVCAR-3 ovarian): 0.0415 µM | GI50 (RXF 393 renal): 0.0165 µM | TGI (RXF 393 renal): 0.0319 µM | GI50 (EKVX NSCLC): 0.0223 µM | TGI (EKVX NSCLC): 0.0495 µM | GI50 (PC-3 prostate): 0.0123 µM | TGI (PC-3 prostate): 0.0336 µM | GI50 (HT29 colon): 0.0184 µM | TGI (HT29 colon): 0.0333 µM | GI50 (SF-295 CNS): 0.0214 µM | TGI (SF-295 CNS): 0.0483 µM | GI50 (A549 NSCLC): 0.0156 µM | TGI (A549 NSCLC): 0.044 µM | GI50 (COLO 205 colon): 0.0182 µM | TGI (COLO 205 colon): 0.038 µM | GI50 (UACC-257 melanoma): 0.0201 µM | TGI (UACC-257 melanoma): 0.0365 µM | TGI (NCI-H460 NSCLC): 0.032 µM | TGI (TK-10 renal): 0.036 µM | GI50 (ACHN renal): 0.0243 µM | TGI (ACHN renal): 0.0575 µM | TGI (NCI-H322M lung): 0.0274 µM | GI50 (SK-OV-3 ovarian): 0.0124 µM | TGI (SK-OV-3 ovarian): 0.0441 µM | GI50 (MALME-3M melanoma): 0.0111 µM | TGI (MALME-3M melanoma): 0.0233 µM | TGI (RPMI-8226 leukemia): 0.0118 µM | GI50 (IGROV1 ovarian): 0.0205 µM | TGI (IGROV1 ovarian): 0.0547 µM | TGI (KM12 colon): 0.0151 µM | GI50 (MDA-MB-468 breast): 0.0133 µM | TGI (MDA-MB-468 breast): 0.0265 µM | GI50 (NCI-H23 lung): 0.0109 µM | TGI (NCI-H23 lung): 0.024 µM | TGI (HCT-116 colon): 0.0409 µM | GI50 (HS 578T breast): 0.0151 µM | TGI (HS 578T breast): 0.0294 µM | GI50 (M14 melanoma): 0.0166 µM | TGI (M14 melanoma): 0.0304 µM | GI50 (SK-MEL-28 melanoma): 0.0138 µM | TGI (SK-MEL-28 melanoma): 0.0271 µM | GI50 (SF-539 CNS): 0.015 µM | TGI (SF-539 CNS): 0.0286 µM | TGI (SNB-19 CNS): 0.0136 µM | GI50 (UO-31 renal): 0.0194 µM | TGI (UO-31 renal): 0.0358 µM | GI50 (HOP-92 NSCLC): 0.01 µM | TGI (HOP-92 NSCLC): 0.025 µM | TGI (SF-268 CNS): 0.0114 µM | TGI (SW-620 colon): 0.0428 µM | GI50 ([…]-0 renal): 0.0173 µM | TGI (786-0 renal): 0.0341 µM | TGI (K-562 leukemia): 0.014 µM | GI50 (A498 renal): 0.0198 µM | TGI (A498 renal): 0.0392 µM | TGI (MCF7 breast): 0.0697 µM | TGI (T-47D breast): 0.0507 µM | TGI (CCRF-CEM leukemia): 0.0105 µM | GI50 (HCC-2998 colon): 0.0146 µM | TGI (HCC-2998 colon): 0.0289 µM

Reference: PubChem BioAssay (NCI)
